From PubChem BioAssay AID248 (DTP/NCI, 2004)
Several values for one entry are separate records, joined by “and”; a condition that tells them apart may be missing. Equal entries are not always repeated. Toxic doses and inconclusive results are not listed. No stated cut-off is given here; in the data, active means T/C of 150% or more; inactive means T/C below 125%.

Tested on: L1210 leukemia ip in BDF1 mice, survival T/C
Assay: NCI In Vivo Anticancer Drug Screen. Data for tumor model L1210 Leukemia (intraperitoneal) in B6D2F1 (BDF1) mice
Conditions: endpoint: mean survival time, higher = longer survival
Procedure, shortened: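 Ratio derived from survival: compound-dosed mice over vehicle-dosed mice, all bearing a transplantable tumor.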

[1] = dose: 50.0 mg/kg/injection, schedule: Q04DX003 (ip), vehicle: saline
[2] = dose: 100.0 mg/kg/injection, schedule: Q01DX001 (ip), vehicle: saline
[3] = dose: 200.0 mg/kg/injection, schedule: Q01DX001 (ip), vehicle: saline
[4] = dose: 100.0 mg/kg/injection, schedule: Q01DX001 (ip), vehicle: carboxymethylcellulose (CMC)
[5] = dose: 200.0 mg/kg/injection, schedule: Q01DX001 (ip), vehicle: carboxymethylcellulose (CMC)
[6] = dose: 100.0 mg/kg/injection, schedule: Q04DX003 (ip), vehicle: saline
[7] = dose: 200.0 mg/kg/injection, schedule: Q04DX003 (ip), vehicle: saline
[8] = dose: 400.0 mg/kg/injection, schedule: Q04DX003 (ip), vehicle: saline
[9] = dose: 37.5 mg/kg/injection, schedule: Q01DX009 (ip), vehicle: saline with Tween-80
[10] = dose: 75.0 mg/kg/injection, schedule: Q01DX009 (ip), vehicle: saline with Tween-80

Measured: T/C

CCOP(=O)(OCC)c1ccc(N=Cc2cnc3nc(NC(C)=O)[nH]c(=O)c3n2)cc1
inactive: dose: 100.0 mg/kg/injection, schedule: Q01DX001 (ip), vehicle: other 109 % of control | dose: 200.0 mg/kg/injection, schedule: Q01DX001 (ip), vehicle: other 112 % of control | dose: 400.0 mg/kg/injection, schedule: Q01DX001 (ip), vehicle: other 101 % of control

Cc1ccc(C)c(NC(=O)Nc2cc(C)on2)c1
inactive: dose: 100.0 mg/kg/injection, schedule: Q01DX009 (ip), vehicle: saline with Tween-80 86 % of control | dose: 200.0 mg/kg/injection, schedule: Q01DX009 (ip), vehicle: saline with Tween-80 97 % of control | dose: 400.0 mg/kg/injection, schedule: Q01DX009 (ip), vehicle: saline with Tween-80 94 % of control

c1ccc(N(c2ccccc2)N(c2ccccc2)c2ccccc2)cc1
inactive: dose: 12.5 mg/kg/injection, schedule: Q01DX009 (ip), vehicle: saline 90 % of control | [1] 89 % of control | [2] 88 % of control | [3] 88 % of control

CCCc1cc(=O)c2ccccc2n1COC(C)=O
inactive: dose: 50.0 mg/kg/injection, schedule: Q01DX001 (ip), vehicle: carboxymethylcellulose (CMC) 119 % of control | [4] 113 % of control | [5] 113 % of control

CC(C)(C)N=C=NC(c1ccccc1)(c1ccccc1)c1ccccc1
inactive: [6] 97 % of control | [7] 94 % of control | [8] 87 % of control

CCN(CC)CCSC(CO)c1ccccc1 (stereo unspecified)
inactive: dose: 75.0 mg/kg/injection, schedule: Q04DX003 (ip), vehicle: Klucel (hydroxypropylcellulose) (HPC) 97 % of control | dose: 150.0 mg/kg/injection, schedule: Q04DX003 (ip), vehicle: Klucel (hydroxypropylcellulose) (HPC) 92 % of control

CCN(CC)CCN(C)c1cc(C)nc(/N=C(\N)Nc2ccc(Cl)c(Cl)c2)n1
inactive: dose: 18.75 mg/kg/injection, schedule: Q01DX009 (ip), vehicle: saline with Tween-80 92 % of control | [9] 103 % of control | dose: 37.5 mg/kg/injection, schedule: Q04DX003 (ip), vehicle: saline with Tween-80 93 % of control | [10] 92 % of control | dose: 75.0 mg/kg/injection, schedule: Q04DX003 (ip), vehicle: saline with Tween-80 97 % of control

O=C(Nc1ccccc1)c1ccc([N+](=O)[O-])cc1Cl
inactive: dose: 100.0 mg/kg/injection, schedule: Q04DX003 (ip), vehicle: Klucel (hydroxypropylcellulose) (HPC) 100 % of control | dose: 200.0 mg/kg/injection, schedule: Q04DX003 (ip), vehicle: Klucel (hydroxypropylcellulose) (HPC) 95 % of control | dose: 400.0 mg/kg/injection, schedule: Q04DX003 (ip), vehicle: Klucel (hydroxypropylcellulose) (HPC) 90 % of control

c1ccc([P+](Cc2cccc(C[P+](c3ccccc3)(c3ccccc3)c3ccccc3)c2)(c2ccccc2)c2ccccc2)cc1
inactive: dose: 1.2 mg/kg/injection, schedule: Q01DX001 (ip), vehicle: acetone 107 % of control | dose: 2.5 mg/kg/injection, schedule: Q01DX001 (ip), vehicle: acetone 99 % of control

O=C(O)C/C1=C/CCCCCC1
inactive: [2] 96 % of control | dose: 100.0 mg/kg/injection, schedule: Q01DX009 (ip), vehicle: saline 96 % of control | [3] 92 % of control | dose: 200.0 mg/kg/injection, schedule: Q01DX009 (ip), vehicle: saline 96 % of control | dose: 400.0 mg/kg/injection, schedule: Q01DX001 (ip), vehicle: saline 101 % of control | dose: 400.0 mg/kg/injection, schedule: Q01DX009 (ip), vehicle: saline 93 % of control

O=C(O)c1ccc(Br)cc1O
inactive: [4] 98 % of control | [5] 104 % of control | dose: 400.0 mg/kg/injection, schedule: Q01DX001 (ip), vehicle: carboxymethylcellulose (CMC) 95 % of control

Nc1nc2ncc(CNc3ccc(C(=O)NC(CCC(=O)O)C(=O)O)cn3)nc2c(=O)[nH]1 (stereo unspecified)
inactive: dose: 25.0 mg/kg/injection, schedule: Q01DX009 (ip), vehicle: saline with Tween-80 104 % of control | [9] 114 % of control and 119 % of control | dose: 50.0 mg/kg/injection, schedule: Q01DX009 (ip), vehicle: saline with Tween-80 114 % of control | [10] 108 % of control

CC(=O)OCC(=O)[C@@]1(O)CC[C@H]2[C@@H]3CCC4=CC(=O)CC[C@]4(C)[C@H]3C(=O)C[C@@]21C
inactive: dose: 12.5 mg/kg/injection, schedule: Q01DX015 (sc), vehicle: steriod suspending solution 102 % of control | dose: 25.0 mg/kg/injection, schedule: Q01DX015 (sc), vehicle: steriod suspending solution 100 % of control | dose: 50.0 mg/kg/injection, schedule: Q01DX015 (sc), vehicle: steriod suspending solution 100 % of control | dose: 100.0 mg/kg/injection, schedule: Q01DX001 (sc), vehicle: steriod suspending solution 101 % of control | dose: 100.0 mg/kg/injection, schedule: Q01DX015 (sc), vehicle: steriod suspending solution 107 % of control | dose: 100.0 mg/kg/injection, schedule: Q04DX003 (sc), vehicle: steriod suspending solution 108 % of control | dose: 200.0 mg/kg/injection, schedule: Q01DX001 (sc), vehicle: steriod suspending solution 92 % of control | dose: 200.0 mg/kg/injection, schedule: Q01DX015 (sc), vehicle: steriod suspending solution 110 % of control | dose: 200.0 mg/kg/injection, schedule: Q04DX003 (sc), vehicle: steriod suspending solution 102 % of control | dose: 400.0 mg/kg/injection, schedule: Q01DX001 (sc), vehicle: steriod suspending solution 111 % of control | dose: 400.0 mg/kg/injection, schedule: Q01DX015 (sc), vehicle: steriod suspending solution 104 % of control | dose: 400.0 mg/kg/injection, schedule: Q04DX003 (sc), vehicle: steriod suspending solution 98 % of control

O=C(O)C(CCO)c1ccccc1 (stereo unspecified)
inactive: dose: 100.0 mg/kg/injection, schedule: Q04DX002 (ip), vehicle: saline with Tween-80 95 % of control | dose: 200.0 mg/kg/injection, schedule: Q04DX002 (ip), vehicle: saline with Tween-80 100 % of control | dose: 400.0 mg/kg/injection, schedule: Q04DX002 (ip), vehicle: saline with Tween-80 95 % of control

OC(c1ccccc1)c1cccc(Br)c1 (stereo unspecified)
inactive: dose: 100.0 mg/kg/injection, schedule: Q01DX009 (ip), vehicle: acetone 104 % of control | [6] 96 % of control | dose: 200.0 mg/kg/injection, schedule: Q01DX009 (ip), vehicle: acetone 107 % of control | [7] 105 % of control | dose: 400.0 mg/kg/injection, schedule: Q01DX009 (ip), vehicle: acetone 100 % of control | [8] 89 % of control

Clc1nc(N2CC2)nc(N2CC2)n1
inactive: dose: 2.5 mg/kg/injection, schedule: Q01DX001 (ip), vehicle: carboxymethylcellulose (CMC) 112 % of control | dose: 5.0 mg/kg/injection, schedule: Q01DX001 (ip), vehicle: carboxymethylcellulose (CMC) 112 % of control | dose: 10.0 mg/kg/injection, schedule: Q01DX001 (ip), vehicle: carboxymethylcellulose (CMC) 117 % of control | dose: 15.0 mg/kg/injection, schedule: Q01DX001 (ip), vehicle: carboxymethylcellulose (CMC) 114 % of control

CC(=O)Nc1cc(C(=O)O)cc(NC(C)=O)c1C
inactive: dose: 100.0 mg/kg/injection, schedule: Q04DX003 (ip), vehicle: saline with Tween-80 103 % of control | dose: 200.0 mg/kg/injection, schedule: Q04DX003 (ip), vehicle: saline with Tween-80 98 % of control | dose: 400.0 mg/kg/injection, schedule: Q04DX003 (ip), vehicle: saline with Tween-80 101 % of control

c1cc[nH]c1
inactive: dose: 75.0 mg/kg/injection, schedule: Q01DX001 (ip), vehicle: saline 100 % of control

Cc1ccc(C(=O)N2C(=O)Cc3ccccc32)cc1
inactive: dose: 50.0 mg/kg/injection, schedule: Q04DX002 (ip), vehicle: Klucel (hydroxypropylcellulose) (HPC) 90 % of control | dose: 100.0 mg/kg/injection, schedule: Q04DX002 (ip), vehicle: Klucel (hydroxypropylcellulose) (HPC) 94 % of control | dose: 200.0 mg/kg/injection, schedule: Q04DX002 (ip), vehicle: Klucel (hydroxypropylcellulose) (HPC) 94 % of control

Cc1cc(=O)[nH]c(NC(C)C(=O)O)n1 (stereo unspecified)
inactive: dose: 12.5 mg/kg/injection, schedule: Q04DX003 (ip), vehicle: saline 101 % of control | dose: 25.0 mg/kg/injection, schedule: Q04DX003 (ip), vehicle: saline 101 % of control | [1] 101 % of control
